From US11464770B2, “Anticancer pharmaceutical composition” (NATIONAL CANCER CENTER, priority 2016, dated 2022)
Like-named read-outs stand apart in the source and are kept apart here.

Legend:
[1] = tested on: RT4: human urinary bladder transitional cell papilloma; experiment: Cell based assay, cytotoxicity in RT4 papilloma cells (selectivity); conditions: Homo sapiens, RT-4; RT4 cells
Method: Commercially available bladder cancer, prostate cancer, lung cancer, breast cancer, blood cancer, pancreatic cancer, colorectal cancer, brain cancer, neuroblastoma, melanoma, liver cancer, cervical carcinoma, ovarian cancer, renal cancer, and papilloma cell lines were each treated with trypsin-EDTA and cultured, followed by being seeded in each well of a 96 well plate. […] The treated cells were additionally cultured for 72 hours, and cell viability was measured by using an ATP detection method (CellTiter-Glo® Luminescent Cell Viability Assay, Promega).

liver cancer cell lines = experiment: Cell based assay, cell viability (CellTiter-Glo), liver cancer cell lines; conditions: Homo sapiens, SK-HEP1; SK-HEP-1 cell line
Method: (§1) Commercially available bladder cancer, prostate cancer, lung cancer, breast cancer, blood cancer, pancreatic cancer, colorectal cancer, brain cancer, neuroblastoma, melanoma, liver cancer, cervical carcinoma, ovarian cancer, renal cancer, and papilloma cell lines were each treated with trypsin-EDTA and cultured, followed by being seeded in each well of a 96 well plate. After 24 hours of treatment at constant temperature, the respective cells were treated with the candidate compound so that a final concentration became 0 to 2 μM. The treated cells were additionally cultured for 72 hours, and cell viability was measured by using an ATP detection method (CellTiter-Glo® Luminescent Cell Viability Assay, Promega).

[2] = tested on: bladder cancer cell lines; experiment: Cell based assay, cell viability (CellTiter-Glo), bladder cancer cell lines; conditions: 72 hours treatment, 0 to 2 μM, CellTiter-Glo
Method: as §1

[3] = tested on: ovarian cancer cell lines; experiment: Cell based assay, cell viability (CellTiter-Glo), ovarian cancer cell lines; conditions: Homo sapiens; OVCAR-3 cells
Method: as §1

neuroblastoma cell lines = experiment: Cell based assay, cell viability (CellTiter-Glo), neuroblastoma cell lines; conditions: Homo sapiens; SH-SY5Y cell line
Method: as §1

[4] = tested on: prostate cancer cell lines (e.g. DU145/TXR); experiment: Cell based assay, cell viability (CellTiter-Glo), prostate cancer cell lines; conditions: Homo sapiens, 72 hours treatment, final concentration 0 to 2 μM
Method: as §1

[5] = 253J cells, read-out: IC50, bladder cancer cell line 253J
[6] = 5637 cells, read-out: IC50, bladder cancer cell line 5637
[7] = Homo sapiens, T-24, T24 cells, read-out: IC50, bladder cancer cell line T24
[8] = Homo sapiens, UMUC3, UM-UC-3 cells, read-out: IC50, bladder cancer cell line UM-UC-3
[9] = Homo sapiens, J82 cells, read-out: IC50, bladder cancer cell line J82
[10] = Homo sapiens, KU-19-19 cells, read-out: IC50, bladder cancer cell line KU-19-19
[11] = MBT-2 cells, read-out: IC50, bladder cancer cell line MBT-2
[12] = CWR22 cells, read-out: IC50, prostate cancer cell line CWR22
[13] = DU-145, DU145/TXR cells, read-out: IC50, prostate cancer cell line DU145/TXR
[14] = DU-145, DU145 cells, read-out: IC50, prostate cancer cell line DU145
[15] = LNcap cells, read-out: IC50, prostate cancer cell line LNcap
[16] = PC-3 cells, read-out: IC50, prostate cancer cell line PC-3

Structure (SMILES)	IC50 (liver cancer cell lines)	IC50 [2, 5]	IC50 [2, 6]	IC50 [2, 7]	IC50 [2, 8]	IC50 [2, 9]	IC50 [2, 10]	IC50 [2, 11]	IC50 [3]	IC50 (neuroblastoma cell lines)	IC50 [4, 12]	IC50 [4, 13]	IC50 [4, 14]	IC50 [4, 15]	IC50 [4, 16]	IC50 [1]
CC(=O)c1c([S+](C)[O-])[nH]c2c(Br)ccc(Cl)c2c1=O (centres unmarked) [Compound 1, 3-acetyl-8-bromo-5-chloro-2-(methylsulfinyl)quinolin-4(1H)-one]	1.23 µM	1.35 µM	1.67 µM	1.34 µM	1.51 µM	> 2 µM	1.94 µM	1.19 µM	0.7 µM	> 2 µM	1.83 µM	1.65 µM	1.9 µM	> 2 µM	1.64 µM	> 10 µM
CSc1[nH]c2c(Br)ccc(Cl)c2c(=O)c1C(C)=O [Compound 2, 3-acetyl-8-bromo-5-chloro-2-(methylthio)quinolin-4(1H)-one]	> 2 µM	> 2 µM	> 2 µM	> 2 µM	> 2 µM	> 2 µM	> 2 µM	> 2 µM	> 2 µM	> 2 µM	> 2 µM	> 2 µM	> 2 µM	> 2 µM	> 2 µM	> 10 µM
CC(=O)c1c(SCc2ccccc2)[nH]c2c(Br)ccc(Cl)c2c1=O [Compound 3, 3-acetyl-2-(benzylthio)-8-bromo-5-chloroquinolin-4(1H)-one]	> 2 µM	> 2 µM	> 2 µM	> 2 µM	> 2 µM	> 2 µM	> 2 µM	> 2 µM	> 2 µM	> 2 µM	> 2 µM	> 2 µM	> 2 µM	> 2 µM	> 2 µM	> 10 µM
CC(=O)c1c([S+]([O-])Cc2ccccc2)nc2c(Br)ccc(Cl)c2c1O (centres unmarked) [Compound 4]	1.13 µM	1 µM	1.91 µM	1.31 µM		> 2 µM			0.81 µM	> 2 µM	1.67 µM	1.19 µM	1.41 µM	> 2 µM	1.52 µM	> 10 µM
CSc1c(C(C)=O)c(=O)c2c(Cl)ccc(Br)c2n1C [Compound 5, 3-acetyl-8-bromo-5-chloro-1-methyl-2-(methylthio)quinolin-4(1H)-one]	> 2 µM	> 2 µM	> 2 µM	> 2 µM	> 2 µM	> 2 µM	> 2 µM	> 2 µM	> 2 µM	> 2 µM	> 2 µM	> 2 µM	> 2 µM	> 2 µM	> 2 µM	> 10 µM
CC(=O)c1c([S+](C)[O-])[nH]c2c(Cl)ccc(Cl)c2c1=O (centres unmarked) [Compound 6, 3-acetyl-5,8-dichloro-2-(methylsulfinyl)quinolin-4(1H)-one]	1.38 µM	1.22 µM	1.69 µM	1.42 µM	1.46 µM	> 2 µM	> 2 µM	1.44 µM	0.73 µM	> 2 µM	1.99 µM	1.54 µM	1.8 µM	> 2 µM	1.68 µM	> 10 µM
CSc1c(C(C)=O)c(=O)c2cc(F)ccc2n1C [Compound 7, 3-acetyl-6-fluoro-1-methyl-2-(methylthio)quinolin-4(1H)-one]	> 2 µM	> 2 µM	> 2 µM	> 2 µM	> 2 µM	> 2 µM	> 2 µM	> 2 µM	> 2 µM	> 2 µM	> 2 µM	> 2 µM	> 2 µM	> 2 µM	> 2 µM	> 10 µM

More lines, main results first:

IC50 (liver cancer cell lines)	IC50 [2, 5]	IC50 [2, 6]	IC50 [2, 7]	IC50 [2, 8]	IC50 [2, 9]	IC50 [2, 10]	IC50 [2, 11]	IC50 [3]	IC50 (neuroblastoma cell lines)	IC50 [4, 12]	IC50 [4, 13]	IC50 [4, 14]	IC50 [4, 15]	IC50 [4, 16]	Structure (SMILES)	IC50 [1]
> 2 µM	> 2 µM	> 2 µM	> 2 µM	> 2 µM	> 2 µM	> 2 µM	> 2 µM	> 2 µM	> 2 µM	> 2 µM	> 2 µM	> 2 µM	> 2 µM	> 2 µM	CSc1[nH]c2ccc(F)cc2c(=O)c1C(C)=O [Compound 8, 1-(6-fluoro-4-hydroxy-2-(methylthio)quinolin-3-yl)ethan-1-one]	> 10 µM
0.99 µM	1.1 µM	1.63 µM	1.16 µM	1.18 µM	> 2 µM	1.97 µM	1.2 µM	0.58 µM	> 2 µM	1.6 µM	1.35 µM	1.59 µM	> 2 µM	1.47 µM	CC(=O)c1c([S+](C)[O-])n(C(=O)c2ccc(Br)cc2)c2c(Br)ccc(Cl)c2c1=O (centres unmarked) [Compound 9, 3-acetyl-8-bromo-1-(4-bromobenzoyl)-5-chloro-2-(methylsulfinyl)quinolin-4(1H)-one]	> 10 µM
> 2 µM	> 2 µM	> 2 µM	> 2 µM	> 2 µM	> 2 µM	> 2 µM	> 2 µM	> 2 µM	> 2 µM	> 2 µM	> 2 µM	> 2 µM	> 2 µM	> 2 µM	CC(=O)c1c(SCc2ccc(Cl)cc2)[nH]c2c(Br)ccc(Cl)c2c1=O [Compound 10, 3-acetyl-8-bromo-5-chloro-2-((4-chlorobenzyl)thio)quinolin-4(1H)-one]	> 10 µM
> 2 µM		> 2 µM	1.83 µM		> 2 µM			> 2 µM	> 2 µM	> 2 µM	1.81 µM	> 2 µM	> 2 µM	> 2 µM	CC(=O)c1c([S+]([O-])Cc2ccc(Cl)cc2)[nH]c2c(Br)ccc(Cl)c2c1=O (centres unmarked) [Compound 11, 3-acetyl-8-bromo-5-chloro-2-((4-chlorobenzyl)sulfinyl)quinolin-4(1H)-one]	> 10 µM
> 2 µM	> 2 µM	> 2 µM	> 2 µM	> 2 µM	> 2 µM	> 2 µM	> 2 µM	> 2 µM	> 2 µM	> 2 µM	> 2 µM	> 2 µM	> 2 µM	> 2 µM	CC(=O)c1c(Sc2ccccc2)[nH]c2c(Br)ccc(Cl)c2c1=O [Compound 12, 3-acetyl-8-bromo-5-chloro-2-(phenylthio)quinolin-4(1H)-one]	> 10 µM
